Measurements from patent US8173631B2, “Cyclic amine compounds” (Daiichi Sankyo Company, Limited, priority 2008, dated 2012).

Columns and labels:
[1] = target: T1, human calcium-sensing receptor (CaSR) (Homo sapiens, UniProt P41180); experiment: Inhibitory activity on calcium-sensing receptor (CaSR), intracellular calcium increase as indicator (FLIPR, CHO/hCaSR); format: cell-based; conditions: CHO cells stably expressing human CaSR; inhibition of intracellular Ca increase induced by extracellular CaCl2
T1 construct: expressed in transfected cells
T1 sequence (P41180 20-1078): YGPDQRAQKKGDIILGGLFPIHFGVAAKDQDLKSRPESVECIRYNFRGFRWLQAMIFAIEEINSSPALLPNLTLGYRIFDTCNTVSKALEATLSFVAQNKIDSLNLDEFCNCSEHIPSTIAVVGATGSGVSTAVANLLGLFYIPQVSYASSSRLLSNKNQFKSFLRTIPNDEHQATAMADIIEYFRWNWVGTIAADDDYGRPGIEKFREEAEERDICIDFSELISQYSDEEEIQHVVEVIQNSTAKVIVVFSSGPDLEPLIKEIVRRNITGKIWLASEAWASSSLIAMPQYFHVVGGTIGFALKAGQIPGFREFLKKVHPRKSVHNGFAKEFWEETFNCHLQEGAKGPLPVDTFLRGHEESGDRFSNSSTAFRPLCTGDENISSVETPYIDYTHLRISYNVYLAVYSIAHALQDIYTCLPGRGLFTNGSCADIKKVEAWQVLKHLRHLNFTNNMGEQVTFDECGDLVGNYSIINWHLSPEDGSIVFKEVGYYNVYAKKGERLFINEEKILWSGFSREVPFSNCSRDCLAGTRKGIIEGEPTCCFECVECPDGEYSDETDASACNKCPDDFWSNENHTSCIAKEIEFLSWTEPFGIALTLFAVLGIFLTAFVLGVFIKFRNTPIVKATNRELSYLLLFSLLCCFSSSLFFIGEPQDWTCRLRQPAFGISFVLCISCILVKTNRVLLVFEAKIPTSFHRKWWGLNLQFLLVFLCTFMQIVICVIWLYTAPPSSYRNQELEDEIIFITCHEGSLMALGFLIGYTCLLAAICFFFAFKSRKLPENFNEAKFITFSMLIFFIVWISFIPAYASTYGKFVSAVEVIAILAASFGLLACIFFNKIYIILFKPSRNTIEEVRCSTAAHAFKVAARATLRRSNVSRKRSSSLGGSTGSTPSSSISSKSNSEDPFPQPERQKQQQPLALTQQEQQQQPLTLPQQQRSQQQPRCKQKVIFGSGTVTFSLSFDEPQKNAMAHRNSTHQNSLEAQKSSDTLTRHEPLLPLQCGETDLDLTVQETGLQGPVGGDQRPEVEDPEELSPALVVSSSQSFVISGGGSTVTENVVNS
How it was run: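 CHO/hCaSR cells loaded with Calcium 3 dye in HEPES/HBSS (Ca/Mg-free, 2.5 mM probenecid, pH 7.4), then preincubated 15 min with compound (final 1.05–10,000 nM). Challenged with CaCl2 ([…]) and fluorescence followed by FLIPR. IC50 derived from the peak-minus-baseline fluorescence increase.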

PTH secretion = experiment: Evaluation of PTH secretion promoting activity in a rat (blood serum PTH after oral administration); format: in vivo; conditions: female F344 rat, oral 3 mg/5 mL/kg, Mean ± S.D., n = 3
Procedure: Evaluation of PTH Secretion Promoting Activity in a Rat
A 10 to 14-week old female F344 rat (Charles River Japan, Inc.) fasted overnight was anesthetized using ether, and blood serum before the administration was prepared by drawing blood from the jugular vein of the animal. Subsequently, the test compound was orally administered at a dose of 3 mg/5 mL/kg using a solvent (0.5% aqueous methyl cellulose solution containing 5% DMA). Blood was drawn from the jugular vein under ether anesthesia at 5, 15, 30, 60, 120, and 240 minutes after the administration of the test compound, and the blood serum was prepared. The blood serum PTH concentration was measured using rat Intact PTH ELISA kit (manufactured by Immutopics, Inc.).

Q: What does the source list for `Cc1ccc(C[C@@H]2CCCN2C[C@@H](O)CO[C@H](C)c2cccc(C(F)(F)F)c2CCC(=O)O)cc1F` [Example 9, 3-{2-[(1R)-1-({(2R)-3-[(2S)-2-(3-Fluoro-4-methylbenzyl)pyrrolidin-1-yl]-2-hydroxypropyl}oxy)ethyl]-6-(trifluoromethyl)phenyl}propanoic acid]?
A: IC50 [1]: ≤ 3.13 µM; Blood Serum PTH (1-84) Concentration, 0 minute (PTH secretion): 87.9 ± 25.5 pg/mL; Blood Serum PTH (1-84) Concentration, After 5 minutes (PTH secretion): 117.2 ± 32.4 pg/mL; Blood Serum PTH (1-84) Concentration, After 15 minutes (PTH secretion): 476.5 ± 99.7 pg/mL; Blood Serum PTH (1-84) Concentration, After 30 minutes (PTH secretion): 235.6 ± 99.1 pg/mL; Blood Serum PTH (1-84) Concentration, After 60 minutes (PTH secretion): 49.1 ± 16.9 pg/mL; Blood Serum PTH (1-84) Concentration, After 120 minutes (PTH secretion): 33.6 ± 5.1 pg/mL; Blood Serum PTH (1-84) Concentration, After 240 minutes (PTH secretion): 117.2 ± 27.7 pg/mL

Q: How did the IC50 [1] turn out when `Cc1ccc(C[C@@H]2CCN2C[C@@H](O)CO[C@H](C)c2ccccc2CCC(=O)O)cc1F` [Example 14, 3-{2-[(1R)-1-({(2R)-3-[(2R)-2-(3-Fluoro-4-methylbenzyl)azetidin-1-yl]-2-hydroxypropyl}oxy)ethyl]phenyl}propanoic acid] was run?
A: ≤ 3.72 µM

Q: And the “Blood Serum PTH (1-84) Concentration, 0 minute” value (PTH secretion)?
A: 53.3 ± 4.4 pg/mL

Q: And the “Blood Serum PTH (1-84) Concentration, After 5 minutes” value (PTH secretion)?
A: 195.9 ± 16.9 pg/mL

Q: What about the “Blood Serum PTH (1-84) Concentration, After 15 minutes” value (PTH secretion) of the same compound?
A: 429.0 ± 111.0 pg/mL

Q: And the “Blood Serum PTH (1-84) Concentration, After 30 minutes” value (PTH secretion)?
A: 198.2 ± 61.0 pg/mL

Q: And the “Blood Serum PTH (1-84) Concentration, After 60 minutes” value (PTH secretion)?
A: 41.8 ± 5.8 pg/mL

Q: What about the “Blood Serum PTH (1-84) Concentration, After 120 minutes” value (PTH secretion) of the same compound?
A: 42.0 ± 8.5 pg/mL

Q: What about the “Blood Serum PTH (1-84) Concentration, After 240 minutes” value (PTH secretion) of the same compound?
A: 64.2 ± 6.3 pg/mL

Q: Which IC50 [1] does the source give for `CC[C@@H](OC[C@H](O)CN1CCC[C@H]1Cc1ccc(Cl)c(F)c1)c1cccc(OC)c1CCC(=O)O` [Example 173] here?
A: ≤ 3.15 µM

Q: Which IC50 [1] does the source give for `Cc1cc(CCC(=O)O)c([C@@H](C)OC[C@H](O)CN2CCC[C@H]2Cc2ccc(C)c(Cl)c2)cc1F` [Example 174] here?
A: ≤ 3.25 µM

Q: Which IC50 [1] does the source give for `Cc1cc(CCC(=O)O)c([C@@H](C)OC[C@H](O)CN2CCC[C@H]2Cc2ccc(Cl)c(Cl)c2)cc1F` [Example 175] here?
A: ≤ 3.12 µM

Q: How did the IC50 [1] turn out when `Cc1ccc(C[C@@H]2CCCN2C[C@@H](O)CO[C@H](C)c2cc(F)c(F)cc2CCC(=O)O)cc1Cl` [Example 176] was run?
A: ≤ 3.23 µM

Q: With `C[C@@H](OC[C@H](O)CN1CCC[C@H]1Cc1ccc(Cl)c(Cl)c1)c1cc(F)c(F)cc1CCC(=O)O` [Example 177] as the compound, how does the IC50 [1] read?
A: ≤ 3.1 µM

Q: Which IC50 [1] does the source give for `Cc1ccc(C[C@@H]2CCCN2C[C@@H](O)CO[C@H](C)c2ccccc2CCc2nn[nH]n2)cc1F` [Example 178, (2R)-1-[(2S)-2-(3-Fluoro-4-methylbenzyl)pyrrolidin-1-yl]-3-[(1R)-1-{2-[2-(2H-tetrazol-5-yl)ethyl]phenyl}ethoxy]propan-2-ol] here?
A: ≤ 3.12 µM
